ChEMBL document CHEMBL3860057, “Design and Synthesis of Potent Quinazolines as Selective β-Glucocerebrosidase Modulators” (J Med Chem, 2016)

What was measured:
[1] = molecular target: T1, Lysosomal acid glucosylceramidase (Homo sapiens, UniProt P04062); assay: Inhibition of synthetic recombinant wild type GCase enzyme velaglucerase alfa (unknown origin) at pH 5.9 preincubated for 5 mins followed by addition of 4-Methylumbelliferyl beta-D-glucopyranoside as substrate measured after 30 mins by fluorescence analysis
T1 sequence (P04062 whole entry): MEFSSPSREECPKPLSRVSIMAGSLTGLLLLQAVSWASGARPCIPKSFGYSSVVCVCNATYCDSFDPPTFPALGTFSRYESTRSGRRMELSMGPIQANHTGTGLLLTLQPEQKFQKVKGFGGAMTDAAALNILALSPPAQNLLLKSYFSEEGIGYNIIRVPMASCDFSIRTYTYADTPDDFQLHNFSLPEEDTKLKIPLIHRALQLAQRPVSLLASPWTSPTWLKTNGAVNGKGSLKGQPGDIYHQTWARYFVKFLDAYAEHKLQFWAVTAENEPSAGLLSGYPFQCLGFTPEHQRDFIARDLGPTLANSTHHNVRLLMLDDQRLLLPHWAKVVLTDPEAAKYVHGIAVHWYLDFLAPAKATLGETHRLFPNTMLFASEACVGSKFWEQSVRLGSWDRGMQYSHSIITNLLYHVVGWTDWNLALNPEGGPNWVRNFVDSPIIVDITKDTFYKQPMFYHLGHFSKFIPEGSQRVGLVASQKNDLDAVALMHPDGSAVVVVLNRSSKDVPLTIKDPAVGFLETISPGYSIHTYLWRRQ

[2] = molecular target: T2, Lysosomal acid glucosylceramidase (Homo sapiens) (UniProt P04062)
T2 sequence (whole entry): T1 sequence (P04062 whole entry)
Description: Binding affinity to synthetic recombinant wild type GCase enzyme velaglucerase alfa (unknown origin) assessed as thermal stabilization by measuring change in melting temperature at lower concentration at pH 5 for every 10 secs by Sypro Orange-dye based fluorescence thermal shift assay

Row | IC50 [1] [nM] | ΔTm [2] [°C] | Structure (SMILES)
1 | 20 |  | C[C@H]1CC[C@H](Nc2nc(-c3cccnc3)nc3ccccc23)CC1
2 |  | 11 | c1ccc2c(c1)CC(Nc1nc(-c3ccsc3)nc3ccccc13)C2
